Test results from patent US5096919A, “Pyrrolylphenyl-substituted hydroxamic acid derivatives” (Ciba-Geigy Corporation, priority 1989, dated 1992).

Assays:
[1] = target: T1, 5-lipoxygenase (Cavia porcellus, UniProt A0A286X958); test: Inhibition of 5-HETE and LTB4 synthesis in A-23187-stimulated guinea pig polymorphonuclear leukocytes; format: cell-based; settings: also printed as 7×10^-7 M, read-out: IC50 for inhibition of the formation of 5-HETE and leukotriene B4 (LTB4)
T1 construct: in A-23187-stimulated guinea pig polymorphonuclear leukocytes; endogenous in cells; host or cells: guinea pig polymorphonuclear leukocytes
T1 sequence (A0A286X958 1-674): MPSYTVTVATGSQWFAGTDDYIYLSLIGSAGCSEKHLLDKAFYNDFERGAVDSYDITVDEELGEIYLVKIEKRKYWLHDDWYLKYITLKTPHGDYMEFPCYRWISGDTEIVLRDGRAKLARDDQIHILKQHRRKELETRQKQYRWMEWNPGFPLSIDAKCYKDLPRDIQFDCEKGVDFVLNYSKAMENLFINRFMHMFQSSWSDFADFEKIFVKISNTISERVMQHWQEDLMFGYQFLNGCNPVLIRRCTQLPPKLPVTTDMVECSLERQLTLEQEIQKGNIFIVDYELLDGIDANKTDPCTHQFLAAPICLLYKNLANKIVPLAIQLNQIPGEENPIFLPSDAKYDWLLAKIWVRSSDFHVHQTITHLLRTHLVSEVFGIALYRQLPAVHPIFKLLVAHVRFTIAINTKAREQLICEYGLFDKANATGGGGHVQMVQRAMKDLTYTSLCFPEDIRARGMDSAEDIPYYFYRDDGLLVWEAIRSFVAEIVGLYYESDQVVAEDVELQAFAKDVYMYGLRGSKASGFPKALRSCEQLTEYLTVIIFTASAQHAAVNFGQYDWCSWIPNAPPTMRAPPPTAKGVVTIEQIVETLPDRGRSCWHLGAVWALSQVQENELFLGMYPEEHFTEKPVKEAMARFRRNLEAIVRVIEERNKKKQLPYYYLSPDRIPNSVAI
Method: 5-Lipoxygenase inhibition is determined e.g. by measuring the percent inhibition of the synthesis of 5-HETE [(5S)-5-hydroxy-6,8,11,14-eicosa-tetraenoic acid] and leukotriene B4 (LTB4, 5,12-dihydroxy-6,8,10,14-eicosatetraenoic acid) in A-23187-stimulated guinea pig polymorphonuclear leukocytes, essentially according to radiometric thin-layer chromatographic assays described by Walker and Dawson (J. Pharm. Pharmacol. 31: 778, 1979) and Jakschik and Lee (Nature 287: 51, 1980) used to measure the formation of 5-HETE and LTB4 -like products from ^14 C-arachidonic acid. IC50 values are determined graphically as the concentration of test compound at which the synthesis of 5-HETE and LTB4 -like products is reduced to 50% of their respective control values.
(§1) Illustrative of the invention, the compound of example 1, (E)-3-[4-(2,5-dimethyl-1H-pyrrol-1-yl)-phenyl]-N-hydroxy-N-methyl-2-propenamide, inhibits the formation of 5-HETE [(5S)-5-hydroxy-6,8,11,14-eicosa-tetraenoic acid] and leukotriene B4 (LTB4, 5,12-dihydroxy-6,8,10,14-eicosatetraenoic acid) in A-23187-stimulated guinea pig polymorphonuclear leukocytes, e.g. at an IC50 of about 0.7 micromolar (7×10^-7 M).

[2] = system: 5-lipoxygenase; test: Ex vivo inhibition of A-23187-stimulated LTB4 formation in whole blood after oral administration; settings: dose of about 1 mg/kg p.o. to the dog
Method: Furthermore, the inhibition of 5-lipoxygenase is determined after oral or i.v. administration to rats or dogs by measuring ex vivo in whole blood the decrease of A-23187-stimulated LTB4 formation as compared to non-treated control animals.
as §1

[3] = system: rat pleurisy model of inflammation; test: Carrageenin-induced pleurisy model of inflammation; format: in vivo; settings: 10 mg/kg p.o. at -1, 6, 24 and 45 hours relative to carrageenin injection, 48 hours after injection

Cc1ccc(C)n1-c1ccc(/C=C/C(=O)N(C)O)cc1 [Example 1, (E)-3-[4-(2,5-dimethyl-1H-pyrrol-1-yl)-phenyl]-N-hydroxy-N-methyl-2-propenamide]
IC50 [1]: ~700 nM
inhibition of LTB4 formation as determined ex vivo [2]: 50%
cell count of leukocytes [3]: lowers the cell count of leukocytes
inhibition of exudate volume [3]: causes inhibition of exudate volume
